Columns and labels:
5-HT7 receptors [1] = target: T1, 5-HT7 receptors (Homo sapiens, UniProt P34969); experiment: HitHunter cAMP enzyme fragment complementation assay, antagonist activity in presence of 5-HT (Kb); format: cell-based; design: expressed in transfected cells; kept under G418 selection; settings: antagonist mode vs EC70 5-HT
Method: Functional efficacy of the compounds of the disclosure on 5-HT7 serotonin receptors were measured in a cell based cAMP enzyme fragment complementation assay using the HitHunter cAMP assay (DiscoveRx). Cells stably expressing human 5HT7 receptors were plated in 96-well plates at 4000 cells/well, 16-20 hours prior to assay in growth media (Ultraculture medium, 2 mM GlutaMax and G418 1 mg/mL. Serial dilutions of the agonist, 5-hydroxytryptamine (5-HT), were prepared in a final concentration range of 10 μM to 10 nM. Compounds of the disclosure were prepared in 3-fold serial dilutions to obtain a final concentration range of 10 μM to 0.1 nM. Compounds of the disclosure are tested for agonist activity in the absence of 5-HT and antagonist activity in the presence of 5-HT. For the cAMP assay, the protocol was followed according to the instructions provided by the supplier. Briefly, cells were incubated with a compound of the disclosure for 30 minutes at 37° C. prior to addition of EC70 concentration of 5-HT. After an additional 30 minutes, cAMP antibody/cell lysis solution was added (20 μL/well) and incubated for 60 minutes at room temperature, cAMP XS+EA reagent is added (20 μL/well) and incubated for 2 hours at room temperature. Luminescence was read on the Envision Multilabel plate reader.

5-HT7 receptors [2] = target: T1, 5-HT7 receptors; experiment: Radiolabeled binding ([3H]LSD competition), membranes of cells expressing recombinant 5-HT7 receptors; design: expressed in transfected cells; settings: for Ki: [3H]LSD radioligand binding; for inhibition at 0.1 µM: read-out: 5-HT7 % Inhib. @ 0.1 uM (Ki column)
Method: ^1Radiolabeled Binding (IC50 and K1)
A solution of the compound of the disclosure to be tested was prepared as a 1-mg/ml stock in Assay Buffer or DMSO according to its solubility. A similar stock of the reference compound chlorpromazine was also prepared as a positive control. Eleven dilutions (5×assay concentration) of the compound of the disclosure and chlorpromazine were prepared in the Assay Buffer by serial dilution to yield final corresponding assay concentrations ranging from 10 pM to 10 μM.
A stock concentration of 5 nM [^3H]LSD (lysergic acid diethyl amide) was prepared in 50 mM Tris-HCl, 10 mM MgCl2, 1 mM EDTA, pH 7.4 (Assay Buffer). Aliquots (50 μl) of radioligand were dispensed into the wells of a 96-well plate containing 100 μl of Assay Buffer. Duplicate 50-μl aliquots of the compound of the disclosure test and chlorpromazine positive control reference compound serial dilutions were added.
Membrane fractions of cells expressing recombinant 5-HT7 receptors (50 μL) were dispensed into each well. The membranes were prepared from stably transfected cell lines expressing 5-HT7 receptors cultured on 10-cm plates by harvesting PBS-rinsed monolayers, resuspending and lysing in chilled, hypotonic 50 mM Tris-HCl, pH 7.4, centrifuging at 20,000×g, decanting the supernatant and storing at −80° C.; the membrane preparations were resuspended in 3 ml of chilled Assay Buffer and homogenized by several passages through a 26 gauge needle before using in the assay.
The 250-μl reactions were incubated at room temperature for 1.5 hours, then harvested by rapid filtration onto 0.3% polyethyleneimine-treated, 96-well filter mats using a 96-well Filtermate harvester. Four rapid 500-μl washes were performed with chilled Assay Buffer to reduce non-specific binding. The filter mats were dried, then scintillant is added to the filters and the radioactivity retained on the filters was counted in a Microbeta scintillation counter.
Raw data (dpm) representing total radioligand binding (i.e., specific+non-specific binding) was plotted as a function of the logarithm of the molar concentration of the competitor (i.e., test or reference compound). Non-linear regression of the normalized (i.e., percent radioligand binding compared to that observed in the absence of test or reference compound) raw data was performed in Prism 4.0 (GraphPad Software) using the built-in three parameter logistic model describing ligand competition binding to radioligand-labeled sites:
y=bottom+[(top−bottom)/(1+10×−log IC50)]
where bottom equals the residual radioligand binding measured in the presence of 10 μM reference compound (i.e., non-specific binding) and top equals the total radioligand binding observed in the absence of competitor. The log IC50 (i.e., the log of the ligand concentration that reduces radioligand binding by 50%) was thus estimated from the data and used to obtain the Ki by applying the Cheng-Prusoff approximation:
where [ligand] equals the assay radioligand concentration and KD equals the affinity constant of the radioligand for the target receptor. Functional Data (Kb)

T1 sequence (P34969 whole entry, the tested form may be a part): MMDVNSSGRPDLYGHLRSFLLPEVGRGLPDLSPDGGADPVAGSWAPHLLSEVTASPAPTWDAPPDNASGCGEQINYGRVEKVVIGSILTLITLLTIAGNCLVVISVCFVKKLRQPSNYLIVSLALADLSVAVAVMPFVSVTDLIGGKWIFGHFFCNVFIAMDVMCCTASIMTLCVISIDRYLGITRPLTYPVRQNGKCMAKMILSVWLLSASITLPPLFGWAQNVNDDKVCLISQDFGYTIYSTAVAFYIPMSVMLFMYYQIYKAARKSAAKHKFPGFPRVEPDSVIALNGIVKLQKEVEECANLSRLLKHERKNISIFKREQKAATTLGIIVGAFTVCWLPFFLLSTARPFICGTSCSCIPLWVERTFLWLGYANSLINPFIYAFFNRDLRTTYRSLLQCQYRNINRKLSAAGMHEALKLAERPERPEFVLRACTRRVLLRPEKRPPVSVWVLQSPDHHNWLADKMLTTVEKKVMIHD

Row | Compound | Kb (5-HT7 receptors [1]) [nM] | Ki (5-HT7 receptors [2]) [nM] | other results
1 | CCC1(CC)C[C@H](CCN2CCN(c3ccc(F)cc3)CC2)N(C)C1=O [Compound A87] | 10 to 100 | < 50 | 
2 | COC(=O)N1CCC2(CC1)C[C@H](CCN1CCN(c3ccc(F)cc3)CC1)N(C)C2=O [Compound A124] | 10 to 100 |  | 
3 | O=C(CN1CCOCC1)N1CCC2(CC1)C[C@H](CCN1CCN(c3ccc(F)cc3)CC1)NC2=O [Compound A33] |  | ≥ 500 | 
4 | CC(F)(F)C(=O)N1CCC2(CC1)C[C@H](CCN1CCN(c3ccc(F)cc3)CC1)NC2=O [Compound A93] | < 10 |  | 
5 | CC(C)(C)C(=O)NC(C)(C)C(=O)N1CCC2(CC1)C[C@H](CCN1CCN(c3cccc(Cl)c3)CC1)NC2=O [Compound A22] |  | 50 to 200 | 
6 | O=C(CN1CCOC1=O)N1CCC2(CC1)C[C@H](CCN1CCN(c3ccc(F)cc3)CC1)NC2=O [Compound A83] | 100 to 500 |  | 
7 | CC(=O)NC(C)(C)C(=O)N1CCC2(CC1)C[C@H](CCN1CCN(c3cccc(Cl)c3)CC1)NC2=O [Compound A18] |  | 200 to 500 | 
8 | CC(C)(N)C(=O)N1CCC2(CC1)C[C@H](CCN1CCN(c3ccc(F)cc3)CC1)NC2=O [Compound A13] |  | 200 to 500 | 
9 | CC(=O)N1CCC2(CC1)C[C@H](CCN1CCN(c3ccc(F)cc3)CC1)N(C)C2=O [Compound A88] | 10 to 100 |  | 
10 | CC(=O)N[C@@H](C)C(=O)N1CCC2(CC1)C[C@H](CCN1CCN(c3cccc(Cl)c3)CC1)NC2=O [Compound A40] | < 10 |  | 
11 | O=C(CN1CCOCC1)N1CCC2(CC1)C[C@H](CCN1CCN(c3cccc(Cl)c3)CC1)NC2=O [Compound A34] |  | 200 to 500 | 
12 | CC(=O)NCC(=O)N1CCC2(CC1)C[C@H](CCN1CCN(c3ccc(F)cc3)CC1)NC2=O [Compound A6] | < 10 |  | 
13 | CC(=O)N1CCC2(CC1)C[C@H](CCN1CCN(c3cccc(Cl)c3)CC1)N(C)C2=O [Compound A89] | 10 to 100 |  | 
14 | CC[C@H](NC(C)=O)C(=O)N1CCC2(CC1)C[C@H](CCN1CCN(c3ccc(F)cc3)CC1)NC2=O [Compound A183] | < 10 |  | 
15 | CN1C(=O)C2(CCN(C(=O)C(C)(F)F)CC2)C[C@@H]1CCN1CCN(c2ccc(F)cc2)CC1 [Compound A103] | < 10 |  | 
16 | CC(C)(C)C(=O)NC(C)(C)C(=O)N1CCC2(CC1)C[C@H](CCN1CCN(c3ccc(F)cc3)CC1)NC2=O [Compound A21] |  | 50 to 200 | 
17 | CN1C(=O)C2(CCN(C(=O)C3CC3)CC2)C[C@@H]1CCN1CCN(c2ccc(F)cc2)CC1 [Compound A99] | < 10 |  | 
18 | CC(C)(C)C(=O)NCC(=O)N1CCC2(CC1)C[C@H](CCN1CCN(c3ccc(F)cc3)CC1)NC2=O [Compound A25] |  | 200 to 500 | 
19 | CC(=O)N1CCC2(CC1)C[C@H](CCN1CCN(c3ccc(F)cc3)C[C@H]1C)NC2=O [Compound A108] | < 10 |  | inhibition at 0.1 µM (5-HT7 receptors [2]): 63%
20 | CC(C)(C)C(=O)NCC(=O)N1CCC2(CC1)C[C@H](CCN1CCN(c3cccc(Cl)c3)CC1)NC2=O [Compound A26] |  | 200 to 500 | 
21 | CC(=O)N[C@H](C(=O)N1CCC2(CC1)C[C@H](CCN1CCN(c3ccc(F)cc3)CC1)NC2=O)C(C)C [Compound A184] | < 10 |  | 
22 | O=C(Cc1nnn[nH]1)N1CCC2(CC1)C[C@H](CCN1CCN(c3ccc(F)cc3)CC1)NC2=O [Compound A82] | ≥ 500 |  | 
23 | CC(=O)N1CCC2(CC1)C[C@H](CCN1CCN(c3ccc(F)cc3)[C@H](C)C1)NC2=O [Compound A110] |  |  | inhibition at 1 µM (5-HT7 receptors [2]; read-out: 5-HT7 % Inhib. @ 1 uM (Ki column)): 45%

Row | Compound | Kb (5-HT7 receptors [1]) [nM] | Ki (5-HT7 receptors [2]) [nM] | other results
24 | CN1C(=O)C2(CCN(C(=O)C(C)(C)C)CC2)C[C@@H]1CCN1CCN(c2cccc(Cl)c2)CC1 [Compound A91] | 10 to 100 |  | 
25 | CN(C)CC(=O)N1CCC2(CC1)C[C@H](CCN1CCN(c3ccc(F)cc3)CC1)NC2=O [Compound A29] |  | ≥ 500 | 
26 | CS(=O)(=O)NCC(=O)N1CCC2(CC1)C[C@H](CCN1CCN(c3ccc(F)cc3)CC1)NC2=O [Compound A10] | 10 to 100 | 50 to 200 | 
27 | CCC1(CC)C[C@H](CCN2CCN(c3ccccc3)CC2)N(C)C1=O [Compound A85] | 10 to 100 | 50 to 200 | 
28 | CC(=O)NCC(=O)N1CCC2(CC1)C[C@H](CCN1CCN(c3cccc(Cl)c3)CC1)NC2=O [Compound A5] | < 10 |  | 
29 | CC(=O)N[C@@H](C)C(=O)N1CCC2(CC1)C[C@H](CCN1CCN(c3ccc(F)cc3)CC1)NC2=O [Compound A39] | < 10 |  | 
30 | CC(=O)N[C@@H](C)C(=O)N1CCC2(CC1)C[C@H](CCN1CCN(c3ccc(F)cc3)C[C@H]1C)NC2=O [Compound A123] | < 10 |  | inhibition at 0.1 µM (5-HT7 receptors [2]): 64%
31 | NCC(=O)N1CCC2(CC1)C[C@H](CCN1CCN(c3ccc(F)cc3)CC1)NC2=O [Compound A2] | 10 to 100 |  | 
32 | CCC1(CC)C[C@H](CCN2CCN(c3cccc(Cl)c3)CC2)N(C)C1=O [Compound A86] | < 10 | < 50 | 
33 | CN(C)CC(=O)N1CCC2(CC1)C[C@H](CCN1CCN(c3cccc(Cl)c3)CC1)NC2=O [Compound A30] |  | 200 to 500 | 
34 | CC(=O)NC(C)(C)C(=O)N1CCC2(CC1)C[C@H](CCN1CCN(c3ccc(F)cc3)CC1)NC2=O [Compound A17] |  | 200 to 500 | 
35 | CC(=O)N1CCC2(CC1)C[C@H](CCN1CCN(c3ccc(F)cc3)[C@@H](C)C1)NC2=O [Compound A109] | 10 to 100 |  | inhibition at 0.1 µM (5-HT7 receptors [2]): 40%
36 | NCC(=O)N1CCC2(CC1)C[C@H](CCN1CCN(c3cccc(Cl)c3)CC1)NC2=O [Compound A1] | < 10 |  | 
37 | CCC(=O)N1CCC2(CC1)C[C@H](CCN1CCN(c3ccc(F)cc3)CC1)N(C)C2=O [Compound A97] | < 10 |  | 
38 | CC(C)(N)C(=O)N1CCC2(CC1)C[C@H](CCN1CCN(c3cccc(Cl)c3)CC1)NC2=O [Compound A14] |  | 200 to 500 | 
39 | CC(C)C(=O)N1CCC2(CC1)C[C@H](CCN1CCN(c3ccc(F)cc3)CC1)N(C)C2=O [Compound A98] | 10 to 100 |  | 
40 | CC(=O)N1CCC2(CC1)C[C@H](CCN1CCN(c3ccc(F)cc3)C[C@@H]1C)NC2=O [Compound A107] | < 10 |  | inhibition at 0.1 µM (5-HT7 receptors [2]): 62%
41 | CN1C(=O)C2(CCN(C(=O)C(C)(C)C)CC2)C[C@@H]1CCN1CCN(c2ccc(F)cc2)CC1 [Compound A90] | < 10 |  | 
42 | O=C(c1cccnn1)N1CCC2(CC1)C[C@H](CCN1CCN(c3ccc(F)cc3)CC1)NC2=O [Compound A84] | 100 to 500 |  | 
43 | O=C(c1cccnc1)N1CCC2(CC1)C[C@H](CCN1CCN(c3ccc(F)cc3)CC1)NC2=O [Compound A81] | 100 to 500 |  | 
44 | CS(=O)(=O)NCC(=O)N1CCC2(CC1)C[C@H](CCN1CCN(c3cccc(Cl)c3)CC1)NC2=O [Compound A9] | 10 to 100 | 50 to 200 | 
45 | O=C(CC(F)(F)F)N1CCC2(CC1)C[C@H](CCN1CCN(c3ccc(F)cc3)CC1)NC2=O [Compound A95] | 10 to 100 |  | 

From patent publication US20230002383A1, “NOVEL FUNCTIONALIZED LACTAMS AS MODULATORS OF THE 5-HYDROXYTRYPTAMINE RECEPTOR 7 AND THEIR METHOD OF USE” (Temple University-Of The Commonwealth System of Higher …, priority 2019, published 2023)
